{
  "source": "patent US20250230193A1",
  "about": "“CYCLIC COMPOUND HAVING SELECTIVE KRAS INHIBITORY EFFECT ON HRAS AND NRAS” (CHUGAI SEIYAKU KABUSHIKI KAISHA, priority 2022, published 2025)",
  "key": {"[1]": {"molecular_target": "GDP-bound NRAS wild-type protein (Homo sapiens, UniProt P01111)", "sequence (P01111 whole entry)": "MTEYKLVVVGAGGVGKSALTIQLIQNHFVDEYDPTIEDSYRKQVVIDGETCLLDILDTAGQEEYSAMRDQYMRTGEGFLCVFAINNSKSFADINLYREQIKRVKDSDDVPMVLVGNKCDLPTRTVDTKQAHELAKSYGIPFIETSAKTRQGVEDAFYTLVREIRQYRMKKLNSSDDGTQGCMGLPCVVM", "test": "Binding to NRAS by surface plasmon resonance (SPR), Single Cycle Kinetics"}, "[2]": {"molecular_target": "GDP-bound HRAS wild-type protein (Homo sapiens, UniProt P01112)", "sequence (P01112 whole entry)": "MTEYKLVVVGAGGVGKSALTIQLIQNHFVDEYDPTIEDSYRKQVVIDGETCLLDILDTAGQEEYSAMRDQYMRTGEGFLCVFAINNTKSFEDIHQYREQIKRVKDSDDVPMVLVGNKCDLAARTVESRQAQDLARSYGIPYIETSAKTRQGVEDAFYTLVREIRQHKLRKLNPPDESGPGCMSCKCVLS", "test": "Binding to HRAS by surface plasmon resonance (SPR), Single Cycle Kinetics"}, "[3]": {"conditions": "SPR, GDP-bound wild-type proteins"}, "[4]": {"conditions": "KD ratio, GDP-bound NRAS wild-type vs GDP-bound KRAS wild-type, SPR"}, "[5]": {"conditions": "KD ratio, GDP-bound HRAS wild-type vs GDP-bound KRAS wild-type, SPR"}},
  "data": [
    {"smiles": "CCOC[C@H]1C(=O)N[C@@H]([C@@H](C)CC)C(=O)N(C2CC2)CC(=O)N(C)[C@@H]2C/C=C\\CCN(C2=O)[C@@H](Cc2ccc(C)cc2)C(=O)N(C)CC(=O)N[C@@H](CCc2ccc(C(F)(F)F)c(OC)c2)C(=O)N2C[C@H](OCC)C[C@@H]2C(=O)NC2(CC(C)(C)C2)C(=O)N(C)[C@H](CC2CCC2)C(=O)N(C)[C@H](C(=O)N(C)C)CC(=O)N1C", "note": "(stereo in doubt) [PP2760]", "values": [
      {"measurement": "NRAS/KRAS (ratio of KD value with respect to GDP-bound NRAS wild-type protein to KD value with respect to KRAS)", "setting": "[1]; class symbols", "value": "A (a compound having 10 or more and less than 20 is denoted as A)"},
      {"measurement": "HRAS/KRAS (ratio of KD value with respect to GDP-bound HRAS wild-type protein to KD value with respect to KRAS)", "setting": "[2]; class symbols", "value": "B (a compound having 3 or more and less than 10 is denoted as B)"}
    ]},
    {"smiles": "CCC[C@H]1C(=O)N[C@@H]([C@@H](C)CC)C(=O)N(C)CC(=O)N(C)[C@H]2C/C=C\\CCN(C2=O)[C@@H](Cc2ccc(C)cc2)C(=O)N(C)CC(=O)N[C@@H](CCc2cc(F)c(C(F)(F)F)c(F)c2)C(=O)N2CC3(CC3)C[C@H]2C(=O)NC2(CC(C)(C)C2)C(=O)N(C)[C@@H](CC(F)(F)F)C(=O)N(C)[C@H](C(=O)N(C)C)CC(=O)N1C", "note": "[PP3003]", "values": [
      {"measurement": "NRAS/KRAS (ratio of KD value with respect to GDP-bound NRAS wild-type protein to KD value with respect to KRAS)", "setting": "[1]; [3]", "value": "AA (a compound having 20 or more is denoted as AA)"},
      {"measurement": "HRAS/KRAS (ratio of KD value with respect to GDP-bound HRAS wild-type protein to KD value with respect to KRAS)", "setting": "[2]; [3]", "value": "A (a compound having 10 or more and less than 20 is denoted as A)"}
    ]},
    {"smiles": "CCO[C@@H]1C[C@H]2C(=O)NC3(CCC3)C(=O)N(C)[C@@H](C3CCCC3)C(=O)N(C)[C@H](C(=O)N(C)C)CC(=O)N(C)[C@@H](COC)C(=O)N[C@@H]([C@@H](C)CC)C(=O)N(C)CC(=O)N(C)[C@H]3CCCCCN(C3=O)[C@@H](Cc3ccc(C(F)(F)F)cc3)C(=O)N(C)CC(=O)N[C@@H](CCc3cc(F)c(C(F)(F)F)c(F)c3)C(=O)N2C1", "note": "[PP0674]", "values": [
      {"measurement": "NRAS/KRAS (ratio of KD value with respect to GDP-bound NRAS wild-type protein to KD value with respect to KRAS)", "setting": "[1]; SPR", "value": "B (a compound having 3 or more and less than 10 is denoted as B)"},
      {"measurement": "HRAS/KRAS (ratio of KD value with respect to GDP-bound HRAS wild-type protein to KD value with respect to KRAS)", "setting": "[2]; SPR", "value": "B (a compound having 3 or more and less than 10 is denoted as B)"}
    ]},
    {"smiles": "CCC[C@H]1C(=O)N[C@@H](C2CCCCC2)C(=O)N(C)CC(=O)N(C)[C@H]2C/C=C\\CCN(C2=O)[C@@H](Cc2ccc(C)cc2)C(=O)N(C)CC(=O)N[C@@H](CCc2ccc(C(F)(F)F)c(Cl)c2)C(=O)N2C[C@H](OCC)C[C@H]2C(=O)NC2(CC(C)(C)C2)C(=O)N(C)[C@@H](CC(C)(C)C)C(=O)N(C)[C@H](C(=O)N(C)C)CC(=O)N1C", "note": "[PP3018]", "values": [
      {"measurement": "NRAS/KRAS (ratio of KD value with respect to GDP-bound NRAS wild-type protein to KD value with respect to KRAS)", "setting": "[1]; [3]", "value": "A (a compound having 10 or more and less than 20 is denoted as A)"},
      {"measurement": "HRAS/KRAS (ratio of KD value with respect to GDP-bound HRAS wild-type protein to KD value with respect to KRAS)", "setting": "[2]; [3]", "value": "B (a compound having 3 or more and less than 10 is denoted as B)"}
    ]},
    {"smiles": "CC[C@H](C)[C@@H]1NC(=O)[C@H](CC(C)C)N(C)C(=O)C[C@@H](C(=O)N(C)CC)N(C)C(=O)[C@H](C2CCCC2)N(C)C(=O)C2(CCC2)NC(=O)[C@@H]2C[C@H](C)CN2C(=O)[C@H](CCc2ccc(C(F)(F)F)c(OC)c2)NC(=O)CN(C)C(=O)[C@H](Cc2ccc(C)cc2)N2CC/C=C\\C[C@@H](C2=O)N(C)C(=O)CN(C)C1=O", "note": "[PP1904]", "values": [
      {"measurement": "NRAS/KRAS (ratio of KD value for NRAS to KD value for KRAS)", "setting": "[1]; [4]", "value": "A (a compound having 10 or more and less than 20 is denoted as A)"},
      {"measurement": "HRAS/KRAS (ratio of KD value for HRAS to KD value for KRAS)", "setting": "[2]; [5]", "value": "B (a compound having 3 or more and less than 10 is denoted as B)"}
    ]},
    {"smiles": "CCO[C@@H]1C[C@H]2C(=O)NC3(CCC3)C(=O)N(C)[C@@H](C3CCCC3)C(=O)N(C)[C@H](C(=O)N3CCOCC3)CC(=O)N(C)[C@@H](CC(C)C)C(=O)N[C@@H]([C@@H](C)CC)C(=O)N(C)CC(=O)N(C)[C@H]3CC=C(C)CN(C3=O)[C@@H](Cc3ccc(C(F)(F)F)cc3)C(=O)N(C)CC(=O)N[C@@H](CCc3cc(F)c(C(F)(F)F)c(F)c3)C(=O)N2C1", "note": "[PP0826]", "values": [
      {"measurement": "NRAS/KRAS (ratio of KD value with respect to NRAS to KD value with respect to KRAS)", "setting": "[1]; [4]", "value": "C (A compound having a KD ratio of 0.1 or more and less than 3 is denoted as C)"},
      {"measurement": "HRAS/KRAS (ratio of KD value with respect to HRAS to KD value with respect to KRAS)", "setting": "[2]; [5]", "value": "B (a compound having 3 or more and less than 10 is denoted as B)"}
    ]},
    {"smiles": "CC[C@H](C)[C@@H]1NC(=O)[C@H](CC)N(C)C(=O)C[C@@H](C(=O)N(C)C)N(C)C(=O)[C@H](C2CCCC2)N(C)C(=O)C2(CCC2)NC(=O)[C@@H]2CCCN2C(=O)[C@H](CCc2cc(F)c(C(F)(F)F)c(F)c2)NC(=O)CN(C)C(=O)[C@H](Cc2ccc(C(F)(F)F)cc2)N2CC/C=C\\C[C@@H](C2=O)N(C)C(=O)CN(C)C1=O", "note": "[PP1135]", "values": [
      {"measurement": "NRAS/KRAS (ratio of KD value with respect to NRAS to KD value with respect to KRAS)", "setting": "[1]; [4]", "value": "A (a compound having 10 or more and less than 20 is denoted as A)"},
      {"measurement": "HRAS/KRAS (ratio of KD value with respect to HRAS to KD value with respect to KRAS)", "setting": "[2]; [5]", "value": "A (a compound having 10 or more and less than 20 is denoted as A)"}
    ]}
  ]
}
